Experimental data taken from PubChem BioAssay AID652066 (The Scripps Research Institute Molecular Screening Center, 2013).

Each compound was assayed against Nuclear receptor coactivator 3 (Homo sapiens) (UniProt Q9Y6Q9) (assay: reduction of cellular SRC-3 protein level, late-stage follow-up, mechanism study for SRC-3 inhibitor probe project, cell-based, MCF-7, Western blot, powder samples (AID 652066)). Details: MCF-7 SRC-3 protein level, 24 h; call rule not given here.
Sequence of Nuclear receptor coactivator 3 (Homo sapiens) (Q9Y6Q9 whole entry, looked up): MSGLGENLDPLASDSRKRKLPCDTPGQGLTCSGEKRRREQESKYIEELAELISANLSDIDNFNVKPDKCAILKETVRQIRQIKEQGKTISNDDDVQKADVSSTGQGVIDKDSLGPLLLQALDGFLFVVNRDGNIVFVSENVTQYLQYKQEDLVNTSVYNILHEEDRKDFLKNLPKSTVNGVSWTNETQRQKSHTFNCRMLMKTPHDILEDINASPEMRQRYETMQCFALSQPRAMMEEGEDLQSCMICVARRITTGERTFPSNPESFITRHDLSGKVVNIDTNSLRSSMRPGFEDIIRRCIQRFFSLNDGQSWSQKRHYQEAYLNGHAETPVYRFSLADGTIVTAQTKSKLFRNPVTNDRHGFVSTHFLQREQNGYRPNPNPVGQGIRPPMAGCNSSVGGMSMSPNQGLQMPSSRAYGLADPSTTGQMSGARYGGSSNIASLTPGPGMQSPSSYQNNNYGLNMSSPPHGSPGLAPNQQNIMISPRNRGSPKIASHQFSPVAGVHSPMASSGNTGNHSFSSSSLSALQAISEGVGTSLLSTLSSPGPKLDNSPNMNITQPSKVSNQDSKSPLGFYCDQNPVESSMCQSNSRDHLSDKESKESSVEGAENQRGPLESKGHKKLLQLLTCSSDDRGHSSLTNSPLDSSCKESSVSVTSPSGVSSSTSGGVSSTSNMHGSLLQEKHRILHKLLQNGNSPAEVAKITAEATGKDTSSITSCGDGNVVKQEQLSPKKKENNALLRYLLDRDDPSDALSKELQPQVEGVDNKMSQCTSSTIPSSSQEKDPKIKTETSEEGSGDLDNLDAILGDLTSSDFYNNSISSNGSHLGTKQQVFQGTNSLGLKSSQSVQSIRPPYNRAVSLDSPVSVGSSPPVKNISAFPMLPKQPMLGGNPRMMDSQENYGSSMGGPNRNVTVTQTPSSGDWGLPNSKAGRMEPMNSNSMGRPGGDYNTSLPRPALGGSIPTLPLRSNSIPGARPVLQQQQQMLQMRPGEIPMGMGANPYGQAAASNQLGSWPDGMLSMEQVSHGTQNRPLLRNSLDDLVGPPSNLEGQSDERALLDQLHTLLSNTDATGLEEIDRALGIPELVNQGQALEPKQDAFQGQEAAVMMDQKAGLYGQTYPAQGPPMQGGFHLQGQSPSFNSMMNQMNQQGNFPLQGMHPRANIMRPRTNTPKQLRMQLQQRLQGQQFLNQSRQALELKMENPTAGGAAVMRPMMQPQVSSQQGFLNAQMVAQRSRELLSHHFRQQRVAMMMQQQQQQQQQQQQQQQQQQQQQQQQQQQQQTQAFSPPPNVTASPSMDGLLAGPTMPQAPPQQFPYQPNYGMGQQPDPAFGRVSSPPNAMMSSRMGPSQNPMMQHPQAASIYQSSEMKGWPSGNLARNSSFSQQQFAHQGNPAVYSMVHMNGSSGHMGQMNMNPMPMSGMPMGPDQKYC

IC50, active:
NC(=O)c1sc2nc3c(c(-c4ccco4)c2c1N)CCC3 < 2000 nM
COc1cc2c(cc1OC)C(NC(=O)C(F)(F)F)CNC2=O (stereo unspecified) < 2000 nM
O=C(CCl)N1N=C(c2ccco2)CC1c1ccco1 (stereo unspecified) < 2000 nM
O=C(CCl)N1N=C(c2ccco2)CC1c1cccs1 (stereo unspecified) < 400 nM
O=C(Nc1nc(-c2ccccn2)cs1)c1cccc(S(=O)(=O)N2CCOCC2)c1 < 2000 nM
COc1cc(C2c3cc4c(cc3C(OC3OC5COC(c6cccs6)OC5C(O)C3O)C3COC(=O)C23)OCO4)cc(OC)c1O (stereo unspecified) < 400 nM
